# Assays:
# [1] = molecular target: Bile salt export pump (Homo sapiens, UniProt O95342); assay type: functional
# [2] = molecular target: Voltage-gated inwardly rectifying potassium channel KCNH2 (Homo sapiens, UniProt Q12809); assay type: functional; conditions: read-out: AC50
# Also: assay procedure not described here.
# Chain of Voltage-gated inwardly rectifying potassium channel KCNH2 (Q12809 whole entry): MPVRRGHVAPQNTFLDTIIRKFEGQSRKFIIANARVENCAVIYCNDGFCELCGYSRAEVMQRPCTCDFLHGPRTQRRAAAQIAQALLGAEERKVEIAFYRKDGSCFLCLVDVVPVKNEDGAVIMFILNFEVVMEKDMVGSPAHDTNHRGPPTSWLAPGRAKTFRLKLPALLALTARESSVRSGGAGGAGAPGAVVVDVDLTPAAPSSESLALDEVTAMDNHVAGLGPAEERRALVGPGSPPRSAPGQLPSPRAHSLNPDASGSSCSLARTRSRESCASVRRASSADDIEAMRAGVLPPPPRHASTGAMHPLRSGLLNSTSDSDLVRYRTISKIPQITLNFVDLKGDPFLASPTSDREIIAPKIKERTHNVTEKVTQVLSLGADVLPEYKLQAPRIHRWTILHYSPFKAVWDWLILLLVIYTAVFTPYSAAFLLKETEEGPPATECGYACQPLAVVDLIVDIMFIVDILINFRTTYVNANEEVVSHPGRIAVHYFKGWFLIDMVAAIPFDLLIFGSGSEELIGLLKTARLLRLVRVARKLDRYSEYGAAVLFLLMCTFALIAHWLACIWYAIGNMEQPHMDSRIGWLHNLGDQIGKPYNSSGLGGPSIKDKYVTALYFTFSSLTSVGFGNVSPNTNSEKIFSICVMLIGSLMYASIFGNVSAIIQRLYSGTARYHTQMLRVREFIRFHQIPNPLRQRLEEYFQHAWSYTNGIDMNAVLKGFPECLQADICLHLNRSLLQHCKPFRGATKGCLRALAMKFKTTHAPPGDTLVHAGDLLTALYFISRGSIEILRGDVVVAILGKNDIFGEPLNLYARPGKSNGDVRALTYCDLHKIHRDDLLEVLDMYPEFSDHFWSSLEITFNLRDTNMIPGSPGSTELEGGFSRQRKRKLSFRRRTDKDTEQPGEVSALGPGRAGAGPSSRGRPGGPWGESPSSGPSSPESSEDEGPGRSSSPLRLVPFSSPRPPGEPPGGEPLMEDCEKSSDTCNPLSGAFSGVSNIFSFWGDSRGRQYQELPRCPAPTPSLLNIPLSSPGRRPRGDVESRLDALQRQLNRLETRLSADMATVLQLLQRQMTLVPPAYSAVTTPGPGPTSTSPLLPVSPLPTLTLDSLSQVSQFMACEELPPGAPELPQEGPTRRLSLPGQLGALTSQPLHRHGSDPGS
# Chain of Bile salt export pump (O95342 whole entry): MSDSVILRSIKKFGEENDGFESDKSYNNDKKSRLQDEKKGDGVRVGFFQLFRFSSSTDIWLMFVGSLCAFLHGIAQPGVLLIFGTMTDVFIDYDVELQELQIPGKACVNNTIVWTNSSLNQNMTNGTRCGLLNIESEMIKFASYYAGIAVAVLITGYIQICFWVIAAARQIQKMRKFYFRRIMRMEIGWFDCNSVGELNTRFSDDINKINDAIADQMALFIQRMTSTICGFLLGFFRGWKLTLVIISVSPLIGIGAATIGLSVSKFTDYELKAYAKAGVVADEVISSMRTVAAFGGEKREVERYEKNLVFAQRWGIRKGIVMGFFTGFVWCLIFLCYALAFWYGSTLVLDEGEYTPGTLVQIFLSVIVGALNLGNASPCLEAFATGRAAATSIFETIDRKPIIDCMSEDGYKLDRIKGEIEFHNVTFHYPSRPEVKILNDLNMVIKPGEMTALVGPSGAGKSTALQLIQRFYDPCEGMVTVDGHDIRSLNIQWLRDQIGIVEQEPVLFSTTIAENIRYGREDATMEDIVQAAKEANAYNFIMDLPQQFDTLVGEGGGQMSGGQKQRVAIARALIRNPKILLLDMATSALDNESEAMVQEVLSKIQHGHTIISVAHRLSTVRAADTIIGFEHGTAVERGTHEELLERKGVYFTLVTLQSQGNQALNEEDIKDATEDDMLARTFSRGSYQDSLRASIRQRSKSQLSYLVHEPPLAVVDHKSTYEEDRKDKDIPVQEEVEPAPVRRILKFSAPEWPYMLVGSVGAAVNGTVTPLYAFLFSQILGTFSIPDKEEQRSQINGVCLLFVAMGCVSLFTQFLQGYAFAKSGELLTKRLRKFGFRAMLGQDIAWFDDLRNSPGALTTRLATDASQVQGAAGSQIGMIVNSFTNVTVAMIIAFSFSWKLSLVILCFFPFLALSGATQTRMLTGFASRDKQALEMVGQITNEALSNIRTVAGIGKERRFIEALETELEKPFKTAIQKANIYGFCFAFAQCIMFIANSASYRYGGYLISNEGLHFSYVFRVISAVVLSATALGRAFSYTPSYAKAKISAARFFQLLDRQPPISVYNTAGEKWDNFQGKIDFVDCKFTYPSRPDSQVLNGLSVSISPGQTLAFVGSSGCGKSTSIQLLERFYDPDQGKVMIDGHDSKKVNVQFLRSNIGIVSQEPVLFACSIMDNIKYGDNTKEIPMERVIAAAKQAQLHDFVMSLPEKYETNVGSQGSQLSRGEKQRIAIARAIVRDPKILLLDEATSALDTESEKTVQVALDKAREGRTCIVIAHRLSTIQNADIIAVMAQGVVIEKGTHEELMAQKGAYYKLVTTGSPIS
AC50 [1] [µM],Structure (SMILES),AC50 [2] [µM]
> 300,CNCC[C@@H](Oc1ccccc1C)c1ccccc1 [ATOMOXETINE],–
3,CCc1oc2ccccc2c1C(=O)c1cc(Br)c(O)c(Br)c1 [BENZBROMARONE],> 30
> 300,CO/N=C(\C(=O)N[C@@H]1C(=O)N2C(C(=O)O)=C(COC(N)=O)CS[C@H]12)c1ccco1 [CEFUROXIME],> 30
170,[H]/N=C(\N/C(=N/[H])NCCCCCCNC(=N)NC(=N)Nc1ccc(Cl)cc1)Nc1ccc(Cl)cc1 [CHLORHEXIDINE],16.3
> 300,Clc1cccc(Cl)c1N=C1NCCN1 [CLONIDINE],–
40,COC(=O)[C@H](c1ccccc1Cl)N1CCc2sccc2C1 [CLOPIDOGREL],26.1
77,CC1(C)O[C@@H]2C[C@H]3[C@@H]4C[C@H](F)C5=CC(=O)C=C[C@]5(C)[C@H]4[C@@H](O)C[C@]3(C)[C@]2(C(=O)CO)O1 [FLUNISOLIDE],> 30
> 300,Nc1nc(O)c2ncn(COC(CO)CO)c2n1 [GANCICLOVIR],> 30

# More lines, now with the values behind:
Structure (SMILES),AC50 [1] [µM],AC50 [2] [µM]
CC(=N)N1CC[C@H](SC2=C(C(=O)O)N3C(=O)[C@H]([C@@H](C)O)[C@H]3C2)C1,> 300,15
CC(/C=C1\SC(=S)N(CC(=O)O)C1=O)=C\c1ccccc1,1.6,> 30
CC1(C)S[C@@H]2[C@H](NC(=O)[C@H](N)c3ccc(O)cc3)C(=O)N2[C@H]1C(=O)O [AMOXICILLIN],> 300,–
O=C1CN2Cc3c(ccc(Cl)c3Cl)N=C2N1 [ANAGRELIDE],> 300,> 30
C=C(C)[C@@H]1CCC(C)=C[C@H]1c1c(O)cc(CCCCC)cc1O [CANNABIDIOL],53,–
CN1C[C@H](C(=O)N[C@]2(C)O[C@@]3(O)[C@@H]4CCCN4C(=O)[C@H](Cc4ccccc4)N3C2=O)C[C@@H]2c3cccc4[nH]cc(c34)C[C@H]21 [DIHYDROERGOTAMINE],28,10
CNCC[C@H](Oc1cccc2ccccc12)c1cccs1 [DULOXETINE],> 300,–

# From ChEMBL document CHEMBL5291721, “A preclinical secondary pharmacology resource illuminates target-adverse drug reaction associations of marketed drugs” (Nat Commun, 2023)
